Source: patent US10670605B2, “Cysteine reactive probes and uses thereof” (The Scripps Research Institute, priority 2015, dated 2020)

Experiments:
Assay in all cases: Competitive isoTOP-ABPP in situ (fragment-treated cells)
Format in all cases: cell-based
[1] = target: T1, cysteines in MDA-MB-231 and Ramos cells (Homo sapiens, UniProt P04183); conditions: for isoTOP-ABPP ratio P04183_C230: 200 μM, insitu, 231
T1 sequence (P04183 1-234): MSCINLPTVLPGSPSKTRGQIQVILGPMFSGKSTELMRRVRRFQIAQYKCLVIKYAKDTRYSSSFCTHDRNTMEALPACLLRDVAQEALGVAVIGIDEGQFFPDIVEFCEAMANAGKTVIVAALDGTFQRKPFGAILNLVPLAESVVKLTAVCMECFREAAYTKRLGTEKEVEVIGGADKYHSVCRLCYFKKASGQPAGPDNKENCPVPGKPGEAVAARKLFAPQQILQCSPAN

[2] = target: T2, cysteines in MDA-MB-231 and Ramos cells (Homo sapiens, UniProt Q15084); conditions: for isoTOP-ABPP ratio Q15084_C55 / isoTOP-ABPP ratio, Q15084_C190: 200 μM, insitu, 231
T2 sequence (Q15084 20-440): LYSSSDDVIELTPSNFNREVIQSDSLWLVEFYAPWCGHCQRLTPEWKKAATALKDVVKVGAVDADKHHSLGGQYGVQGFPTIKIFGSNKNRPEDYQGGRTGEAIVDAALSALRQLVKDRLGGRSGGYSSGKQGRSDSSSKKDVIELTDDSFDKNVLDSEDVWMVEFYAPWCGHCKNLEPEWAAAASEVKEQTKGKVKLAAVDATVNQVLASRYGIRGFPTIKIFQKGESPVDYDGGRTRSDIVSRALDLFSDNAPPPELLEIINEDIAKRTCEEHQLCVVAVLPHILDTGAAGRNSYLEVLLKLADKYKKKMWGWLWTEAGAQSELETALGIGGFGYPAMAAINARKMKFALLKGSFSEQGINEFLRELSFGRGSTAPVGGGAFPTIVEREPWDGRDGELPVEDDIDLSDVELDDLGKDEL

[3] = target: cysteines in MDA-MB-231 and Ramos cells (Homo sapiens, UniProt Q15365); conditions: for isoTOP-ABPP ratio Q15365_C194: 200 μM, insitu, 231
Chain of cysteines in MDA-MB-231 and Ramos cells (Homo sapiens, UniProt Q15365) (Q15365 whole entry): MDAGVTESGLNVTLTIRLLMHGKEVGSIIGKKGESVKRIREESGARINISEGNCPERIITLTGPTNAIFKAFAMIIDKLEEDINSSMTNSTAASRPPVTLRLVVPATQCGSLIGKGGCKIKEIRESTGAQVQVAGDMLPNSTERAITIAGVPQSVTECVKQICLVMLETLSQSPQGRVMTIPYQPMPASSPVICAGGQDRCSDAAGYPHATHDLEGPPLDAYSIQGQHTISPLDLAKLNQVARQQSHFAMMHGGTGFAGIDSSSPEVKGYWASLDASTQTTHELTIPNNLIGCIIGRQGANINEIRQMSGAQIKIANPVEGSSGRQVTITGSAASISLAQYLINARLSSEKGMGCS

[4] = target: cysteines in MDA-MB-231 and Ramos cells (Homo sapiens, UniProt Q16831); conditions: for isoTOP-ABPP ratio Q16831_C162: 200 μM, insitu, 231
Chain of cysteines in MDA-MB-231 and Ramos cells (Homo sapiens, UniProt Q16831) (Q16831 whole entry): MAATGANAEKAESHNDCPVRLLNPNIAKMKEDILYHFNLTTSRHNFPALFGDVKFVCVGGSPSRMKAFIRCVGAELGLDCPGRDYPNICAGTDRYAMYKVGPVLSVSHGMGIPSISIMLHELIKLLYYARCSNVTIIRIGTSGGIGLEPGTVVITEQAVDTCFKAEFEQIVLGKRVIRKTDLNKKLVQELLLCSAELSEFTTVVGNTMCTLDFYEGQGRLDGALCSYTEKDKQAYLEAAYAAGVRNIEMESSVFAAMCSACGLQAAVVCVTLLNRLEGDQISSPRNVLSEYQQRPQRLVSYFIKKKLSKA

[5] = target: cysteines in MDA-MB-231 and Ramos cells (Homo sapiens, UniProt Q93009); conditions: for isoTOP-ABPP ratio Q93009_C223: 200 μM, insitu, 231
Chain of cysteines in MDA-MB-231 and Ramos cells (Homo sapiens, UniProt Q93009) (Q93009 whole entry): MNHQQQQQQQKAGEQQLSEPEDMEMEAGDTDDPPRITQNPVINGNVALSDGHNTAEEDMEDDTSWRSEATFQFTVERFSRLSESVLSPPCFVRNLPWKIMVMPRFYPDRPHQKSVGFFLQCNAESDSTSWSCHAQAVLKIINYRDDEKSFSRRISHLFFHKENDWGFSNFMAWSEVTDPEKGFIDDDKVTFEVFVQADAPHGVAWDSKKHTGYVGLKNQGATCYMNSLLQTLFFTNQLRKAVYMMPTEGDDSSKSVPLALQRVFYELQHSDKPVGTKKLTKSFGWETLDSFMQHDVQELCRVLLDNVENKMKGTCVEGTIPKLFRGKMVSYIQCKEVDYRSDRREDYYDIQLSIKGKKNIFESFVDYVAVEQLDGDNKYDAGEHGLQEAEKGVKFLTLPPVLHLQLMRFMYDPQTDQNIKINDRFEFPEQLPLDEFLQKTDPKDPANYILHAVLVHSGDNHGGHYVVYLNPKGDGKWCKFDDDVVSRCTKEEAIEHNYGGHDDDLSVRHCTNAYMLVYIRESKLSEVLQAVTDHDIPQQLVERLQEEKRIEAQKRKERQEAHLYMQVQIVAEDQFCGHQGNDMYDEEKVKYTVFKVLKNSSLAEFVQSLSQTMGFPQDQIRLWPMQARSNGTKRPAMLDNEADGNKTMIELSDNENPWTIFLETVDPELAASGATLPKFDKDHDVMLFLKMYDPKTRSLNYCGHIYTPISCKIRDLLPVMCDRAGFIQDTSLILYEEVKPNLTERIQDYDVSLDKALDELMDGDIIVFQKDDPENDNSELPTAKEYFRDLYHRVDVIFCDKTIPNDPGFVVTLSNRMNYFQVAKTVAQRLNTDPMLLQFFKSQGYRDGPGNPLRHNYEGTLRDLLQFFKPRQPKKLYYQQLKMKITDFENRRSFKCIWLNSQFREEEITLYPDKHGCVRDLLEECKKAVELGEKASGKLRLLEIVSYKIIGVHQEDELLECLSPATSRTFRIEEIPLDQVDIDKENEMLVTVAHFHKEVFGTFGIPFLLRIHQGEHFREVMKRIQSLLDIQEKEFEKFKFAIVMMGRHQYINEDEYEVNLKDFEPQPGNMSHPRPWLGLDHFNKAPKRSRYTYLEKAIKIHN

[6] = target: T3, cysteines in MDA-MB-231 and Ramos cells (Homo sapiens, UniProt Q96T76); conditions: for isoTOP-ABPP ratio Q96T76_C819 / isoTOP-ABPP ratio Q96T76_C848: 200 μM, insitu, 231
T3 sequence (Q96T76 1-1030): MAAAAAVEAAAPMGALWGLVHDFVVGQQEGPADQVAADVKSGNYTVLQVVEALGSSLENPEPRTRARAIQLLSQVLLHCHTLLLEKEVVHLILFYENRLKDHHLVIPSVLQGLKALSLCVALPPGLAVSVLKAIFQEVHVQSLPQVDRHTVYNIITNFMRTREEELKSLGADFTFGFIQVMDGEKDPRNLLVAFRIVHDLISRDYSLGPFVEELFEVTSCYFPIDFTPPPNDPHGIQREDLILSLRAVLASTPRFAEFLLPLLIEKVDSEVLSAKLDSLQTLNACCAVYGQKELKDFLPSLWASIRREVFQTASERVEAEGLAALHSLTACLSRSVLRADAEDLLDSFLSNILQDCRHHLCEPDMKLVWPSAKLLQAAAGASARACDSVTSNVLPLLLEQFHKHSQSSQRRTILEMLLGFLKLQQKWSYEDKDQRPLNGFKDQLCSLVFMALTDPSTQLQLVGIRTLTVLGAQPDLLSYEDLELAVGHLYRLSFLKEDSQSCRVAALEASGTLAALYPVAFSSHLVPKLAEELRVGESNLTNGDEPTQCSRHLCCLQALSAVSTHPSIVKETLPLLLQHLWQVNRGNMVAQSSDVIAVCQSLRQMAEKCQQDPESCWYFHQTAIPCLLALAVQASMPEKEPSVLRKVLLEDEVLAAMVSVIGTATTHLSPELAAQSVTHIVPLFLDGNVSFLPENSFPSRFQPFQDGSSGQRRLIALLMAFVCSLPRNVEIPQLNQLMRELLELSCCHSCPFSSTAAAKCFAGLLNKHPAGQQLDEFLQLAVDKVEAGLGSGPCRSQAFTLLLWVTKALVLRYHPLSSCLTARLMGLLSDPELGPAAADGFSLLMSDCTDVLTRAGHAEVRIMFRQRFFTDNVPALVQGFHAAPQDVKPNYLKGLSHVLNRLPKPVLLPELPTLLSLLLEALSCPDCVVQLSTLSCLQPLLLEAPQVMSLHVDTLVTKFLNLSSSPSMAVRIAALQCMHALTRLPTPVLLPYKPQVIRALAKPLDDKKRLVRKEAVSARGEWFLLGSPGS

[7] = target: T4, cysteines in MDA-MB-231 and Ramos cells (Homo sapiens, UniProt Q99757); conditions: for isoTOP-ABPP ratio Q99757_C90: 200 μM, insitu, 231
T4 sequence (Q99757 60-166): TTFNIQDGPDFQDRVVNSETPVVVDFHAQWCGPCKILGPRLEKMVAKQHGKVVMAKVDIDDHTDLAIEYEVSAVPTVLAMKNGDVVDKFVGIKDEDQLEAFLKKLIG

[8] = target: T5, cysteines in MDA-MB-231 and Ramos cells (Homo sapiens, UniProt Q9BVC5); conditions: for isoTOP-ABPP ratio Q9BVC5_C10: 200 μM, insitu, 231
T5 sequence (Q9BVC5 1-232): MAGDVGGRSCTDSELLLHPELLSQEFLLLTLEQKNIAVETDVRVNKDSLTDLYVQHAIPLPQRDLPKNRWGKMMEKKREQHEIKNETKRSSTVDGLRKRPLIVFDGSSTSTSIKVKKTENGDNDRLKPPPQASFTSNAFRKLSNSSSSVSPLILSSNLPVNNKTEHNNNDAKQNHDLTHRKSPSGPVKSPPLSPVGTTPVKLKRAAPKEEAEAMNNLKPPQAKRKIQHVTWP

[9] = target: cysteines in MDA-MB-231 and Ramos cells (Homo sapiens, UniProt Q9BXW7); conditions: for isoTOP-ABPP ratio Q9BXW7_C392: 200 μM, insitu, 231
Chain of cysteines in MDA-MB-231 and Ramos cells (Homo sapiens, UniProt Q9BXW7) (Q9BXW7 24-423): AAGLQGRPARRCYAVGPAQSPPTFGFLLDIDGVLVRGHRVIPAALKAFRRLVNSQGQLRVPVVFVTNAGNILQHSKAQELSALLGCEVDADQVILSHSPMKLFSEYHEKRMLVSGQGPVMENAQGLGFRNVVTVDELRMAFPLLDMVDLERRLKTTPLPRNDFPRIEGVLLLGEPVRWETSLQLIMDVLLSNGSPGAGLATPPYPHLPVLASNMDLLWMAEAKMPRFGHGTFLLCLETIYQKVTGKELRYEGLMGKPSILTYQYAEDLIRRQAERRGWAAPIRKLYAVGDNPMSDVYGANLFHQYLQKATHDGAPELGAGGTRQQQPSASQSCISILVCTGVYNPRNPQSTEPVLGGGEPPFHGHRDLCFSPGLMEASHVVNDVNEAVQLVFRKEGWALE

[10] = target: T6, cysteines in MDA-MB-231 and Ramos cells (Homo sapiens, UniProt Q9UMS0); conditions: for isoTOP-ABPP ratio Q9UMS0_C213: 200 μM, insitu, 231
T6 sequence (Q9UMS0 10-254): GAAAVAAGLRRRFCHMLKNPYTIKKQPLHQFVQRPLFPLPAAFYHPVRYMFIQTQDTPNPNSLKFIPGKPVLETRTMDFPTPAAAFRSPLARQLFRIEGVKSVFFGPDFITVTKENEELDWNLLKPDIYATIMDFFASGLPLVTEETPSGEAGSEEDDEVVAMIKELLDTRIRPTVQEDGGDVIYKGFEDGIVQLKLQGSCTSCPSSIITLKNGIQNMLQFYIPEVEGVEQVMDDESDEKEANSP

| Structure (SMILES) | isoTOP-ABPP ratio Q15084_C55 [2] | isoTOP-ABPP ratio, Q15084_C190 [2] | isoTOP-ABPP ratio Q15365_C194 [3] | isoTOP-ABPP ratio Q16831_C162 [4] | isoTOP-ABPP ratio Q93009_C223 [5] | isoTOP-ABPP ratio Q96T76_C819 [6] | isoTOP-ABPP ratio Q96T76_C848 [6] | isoTOP-ABPP ratio Q99757_C90 [7] | isoTOP-ABPP ratio Q9BVC5_C10 [8] | isoTOP-ABPP ratio Q9BXW7_C392 [9] | isoTOP-ABPP ratio Q9UMS0_C213 [10] | isoTOP-ABPP ratio P04183_C230 [1] | also measured |
| --- | --- | --- | --- | --- | --- | --- | --- | --- | --- | --- | --- | --- | --- |
| COc1ccc(C2CC(c3cccs3)=NN2C(=O)CCl)cc1 (stereo not drawn) [compound 4] | – | – | – | – | – | – | – | – | – | – | – | – | isoTOP-ABPP reactivity P04183_C230 TK1 ([1]; 100 μM in situ 231): 0.8; isoTOP-ABPP reactivity Q15084_C55 PDIA6 ([2]; 100 μM in situ 231): 4.9; isoTOP-ABPP reactivity Q15084_C190 PDIA6 ([2]; 100 μM in situ 231): 20.0; isoTOP-ABPP reactivity Q15365_C194 PCBP1 ([3]; 100 μM in situ 231): 1.4; isoTOP-ABPP reactivity Q16831_C162 UPP1 ([4]; 100 μM in situ 231): 1.0; isoTOP-ABPP reactivity Q93009_C223 USP7 ([5]; 100 μM in situ 231): 6.8; isoTOP-ABPP reactivity Q96T76_C848 MMS19 ([6]; 100 μM in situ 231): 20.0; isoTOP-ABPP reactivity Q99757_C90 TXN2 ([7]; 100 μM in situ 231): 3.6; isoTOP-ABPP reactivity Q9BVC5_C10 C2orf49 ([8]; 100 μM in situ 231): 3.3; isoTOP-ABPP reactivity Q9BXW7_C392 CECR5 ([9]; 100 μM in situ 231): 2.2; isoTOP-ABPP reactivity Q9UMS0_C213 NFU1 ([10]; 100 μM in situ 231): 4.4 |
| CC(C)CCOCCNC(=O)CCl [compound 27] | 1.2 | 1.0 | 0.5 | 0.5 | 1.1 | 0.5 | 0.5 | 6.3 | 1.1 | 1.3 | 1.3 | – | – |
| C=CC(=O)Nc1cc(F)c(N2CCN(C(=O)OC(C)(C)C)CC2)c(F)c1 [compound 38] | 0.8 | 1.0 | 15 | 1.4 | 0,8 | 4.6 | – | 3.6 | 0.9 | 0.8 | 3.5 | 2.8 | – |
| CC1CCc2ccccc2N1C(=O)CCl (stereo not drawn) [compound 45] | 2.0 | 2.8 | 1.5 | 1.3 | 20.0 | 20.0 | 20.0 | 6.7 | 3.4 | 4.9 | 7.1 | 2.0 | – |
| O=C(CCl)Nc1cccc2ncccc12 [compound 51] | 5.0 | – | 0.6 | 1.1 | 1.0 | – | – | 5.0 | 1.0 | 1.1 | 1.8 | 0.7 | – |
